Results published in ChEMBL document CHEMBL1150691, “New lysophosphatidylcholines and monoglycerides from the marine sponge Stelletta sp” (2003).
Converted amounts (≈) assume the structure as drawn.

What was measured:
Type in all cases: functional
Settings in all cases: read-out: ED50 (the source's name)
A549 = test: Cytotoxicity against human A549 cells
HCT-15 = test: Cytotoxicity against human HCT15 cells
SK-MEL-2 = test: Cytotoxicity against human SK-MEL-2 cells
XF498 = test: Cytotoxicity against human XF498 cells
SK-OV-3 = test: Cytotoxicity against human SKOV3 cells

CC(C)CCCCCCCCCC(C)C(=O)OC[C@@H](O)CO (stereo not given in full)
EC50 (A549): 20 µg/mL (≈ 63.2 µM) | EC50 (HCT-15): 18.6 µg/mL (≈ 58.8 µM) | EC50 (SK-MEL-2): 21.8 µg/mL (≈ 68.9 µM) | EC50 (XF498): 30.7 µg/mL (≈ 97 µM) | EC50 (SK-OV-3): 38.9 µg/mL (≈ 123 µM)

CC(C)CCCCCCCCCCCCC/C=C\CCCC(=O)OC[C@@H](O)CO
EC50 (A549): > 30 µg/mL | EC50 (HCT-15): > 30 µg/mL | EC50 (SK-MEL-2): > 30 µg/mL | EC50 (XF498): > 30 µg/mL | EC50 (SK-OV-3): > 30 µg/mL

CC(C)CCCCCCCCCCCC/C=C\CC/C=C\CCCC(=O)OC[C@@H](O)CO
EC50 (A549): > 30 µg/mL | EC50 (HCT-15): > 30 µg/mL | EC50 (SK-MEL-2): > 30 µg/mL | EC50 (XF498): > 30 µg/mL | EC50 (SK-OV-3): > 30 µg/mL

C=CCCCCC(C)CCC/C=C\C#CCC[C@H](OC)C(=O)OC[C@@H](O)COP(=O)([O-])CC[N+](C)(C)C (stereo not given in full)
EC50 (A549): 11.8 µg/mL (≈ 21.7 µM) | EC50 (HCT-15): 15.1 µg/mL (≈ 27.8 µM) | EC50 (SK-MEL-2): 9.1 µg/mL (≈ 16.7 µM) | EC50 (XF498): 13.6 µg/mL (≈ 25 µM) | EC50 (SK-OV-3): 14.5 µg/mL (≈ 26.7 µM)

C=CCCCCC(C)CCC/C=C\C#CCC[C@H](OC)C(=O)OC[C@@H](O)CO (stereo not given in full)
EC50 (A549): 31.3 µg/mL (≈ 79.3 µM) | EC50 (HCT-15): > 30 µg/mL | EC50 (SK-MEL-2): > 30 µg/mL | EC50 (XF498): 42.5 µg/mL (≈ 108 µM) | EC50 (SK-OV-3): > 30 µg/mL

COC(=O)CCCCCCCCCCCCCCCCO
EC50 (A549): > 30 µg/mL | EC50 (HCT-15): > 30 µg/mL | EC50 (SK-MEL-2): > 30 µg/mL | EC50 (XF498): > 30 µg/mL | EC50 (SK-OV-3): > 30 µg/mL

COC(=O)CCCCCCCCCCCCCCO
EC50 (A549): 25.9 µg/mL (≈ 95.1 µM) | EC50 (HCT-15): 16.5 µg/mL (≈ 60.6 µM) | EC50 (SK-MEL-2): > 30 µg/mL | EC50 (XF498): > 30 µg/mL | EC50 (SK-OV-3): 35.7 µg/mL (≈ 131 µM)

COc1cccc2c1C(=O)c1c(O)c3c(c(O)c1C2=O)C[C@@](O)(C(=O)CO)C[C@@H]3O[C@H]1C[C@H](N)[C@H](O)[C@H](C)O1 [DOXORUBICIN]
EC50 (A549): 0.03 µg/mL (≈ 0.0552 µM) | EC50 (HCT-15): 0.29 µg/mL (≈ 0.534 µM) | EC50 (SK-MEL-2): 0.06 µg/mL (≈ 0.11 µM) | EC50 (XF498): 0.19 µg/mL (≈ 0.35 µM) | EC50 (SK-OV-3): 0.13 µg/mL (≈ 0.239 µM)

CC(C)CCCCCCCCCC(C)C(=O)OC[C@@H](O)COP(=O)([O-])CC[N+](C)(C)C (stereo not given in full) [STELLETTACHOLINE B]
EC50 (A549): 7.4 µg/mL (≈ 15.9 µM) | EC50 (HCT-15): 26.9 µg/mL (≈ 57.8 µM) | EC50 (SK-MEL-2): 6.3 µg/mL (≈ 13.5 µM) | EC50 (XF498): 24.1 µg/mL (≈ 51.8 µM) | EC50 (SK-OV-3): 4.8 µg/mL (≈ 10.3 µM)
